Experimental data taken from paper PMC9186412, “Rational Framework for the Design of Trp- and Arg-Rich Peptide Antibiotics Against Multidrug-Resistant Bacteria” (Frontiers in Microbiology, 2022).
≈ marks a conversion by molar mass, not a printed value. Read-outs that look alike come from different tables or passages of the source. Where a SMILES comes first, the peptide text is derived from it. Bridges are numbered along the chain shown (N, C = ends). [ ]: non-standard residue; d: D form. The star is where a group is joined. X1 = CC[C@H](C)CCCCC(=O)*; Dab = NCC[C@H](N)C(=O)O

Tests used:
K. pneumoniae = assay: microbe, parasite or virus in culture; format: cell-based, Klebsiella pneumoniae
Outline: (§1)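 Clinical isolates in log phase were exposed to peptides in cation-adjusted MHB for 18 h at 37 °C, with growth followed hourly at A570 to give the MIC by a modified CLSI method. For MBC, bacteria were treated 3 h in 15% FBS/25% MHB/60% PBS and then plated; MBC was the concentration giving complete killing.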

A. baumannii = assay: microbe, parasite or virus in culture; format: cell-based, Acinetobacter baumannii
Outline: as §1

CDC AR isolates = test system: CDC AR isolates; design: key: S (green), susceptible; I (blue), intermediate; R (red), resistant; conditions: data provided by the CDC, ref CDC, cited from earlier work
Source text: Supplement Table_3.XLSX, sheet "CDC AR isolates profiles" | column: G(-) strains

E. coli = assay: microbe, parasite or virus in culture; format: cell-based, Escherichia coli
Outline: as §1

Enterobacter spp = assay: microbe, parasite or virus in culture; format: cell-based, Enterobacter spp (aerogenes, cloacae)
Outline: as §1

S. aureus = assay: microbe, parasite or virus in culture; format: cell-based
Procedure: (§2) Bacterial clinical isolates, used for initial screening and in previous studies ([Deslouches et al., 2013]; [Lin et al., 2018]), were anonymously provided by the clinical microbiology laboratory of the University of Pittsburgh medical Center. The panel used for secondary screening was from [CDC (2013)] (Supplementary Table 3), with resistance profiles data. Bacteria are stored in lock-secured –80°C freezer and typically retrieved by obtaining single colonies on agar plates prior for subsequent liquid broth cultures. Suspensions of test bacteria were prepared from log phase of growth by diluting overnight cultures at 1:100 with fresh cation-adjusted MHB (MHB2, Millipore Sigma, United States) and incubating for additional 3–4 h. Bacteria were spun at 3,000 × g for 10 min and the pellet resuspended in test condition media (Millipore Sigma, United States) to determine bacterial turbidity using a Den-1B densitometer (Grant Instruments, United States) at 0.5 McFarland (unit of bacterial density) corresponding to […].
(§3) To examine antibacterial activity, we used minor modifications of a standard growth inhibition assay endorsed by the Clinical and Laboratory Standards Institute (CLSI), as previously described ([Deslouches et al., 2013]). Bacteria were incubated with each of the indicated peptides in MHB2. The bacterial cells were kept in an incubator for 18 h at 37°C, which is linked to a robotic system that feeds a plate reader every hour with one of 8 × 96-well plates. This set-up allows the collection of growth kinetic data at A 570 (absorbance at 570 nm) to examine growth inhibition in real time (BioTek Instruments, United States). […] The assays are typically repeated a second time. If the MIC is different, a third experimental trial is performed to confirm the MIC. To assess bactericidal properties of the peptide, the assay was modified by using 15% fetal bovine serum (FBS, for a more physiologically relevant test condition) mixed with 25% MHB2 and 60% PBS. Bacterial cells (colony forming unit/mL or CFU/mL) were enumerated after incubating treated bacteria for 3 h and plating serially diluted samples on broth agar medium at 37°C overnight. Minimum bactericidal concentration (MBC) was determined as the peptide concentration at which complete bacterial killing was observed. […] Data were analyzed using GraphPad Prism software.

P. aeruginosa = assay: microbe, parasite or virus in culture; format: cell-based, Pseudomonas aeruginosa
Procedure: as §2, §3

[1] = test system: ESKAPE pathogens and Escherichia coli; conditions: initial test strains; MHB2
Procedure: Bacteria were incubated with each of the indicated peptides in MHB2. […] To assess bactericidal properties of the peptide, the assay was modified by using 15% fetal bovine serum (FBS, for a more physiologically relevant test condition) mixed with 25% MHB2 and 60% PBS. […] Data were analyzed using GraphPad Prism software.

## CC[C@H](C)CCCCC(=O)N[C@@H](CCN)C(=O)N[C@H](C(=O)N[C@@H](CCN)C(=O)N[C@H]1CCNC(=O)[C@H]([C@@H](C)O)NC(=O)[C@H](CCN)NC(=O)[C@H](CCN)NC(=O)[C@H](CC(C)C)NC(=O)[C@@H](CC(C)C)NC(=O)[C@H](CCN)NC1=O)[C@@H](C)O [Colistin, reference compound] (X1-[Dab]T[Dab][Dab][Dab][dL]L[Dab][Dab]T; lactam 4-C (inferred); N-terminus assumed)
K. pneumoniae; colistin-resistant CDC isolate KP46, MHB2
  MIC: 4 µM (≈ 4.68 µg/mL)
K. pneumoniae; colistin-resistant CDC isolate KP87, MHB2
  MIC: >16 µM
K. pneumoniae; colistin-resistant CDC isolate KP125, MHB2
  MIC: 8 µM (≈ 9.36 µg/mL)
K. pneumoniae; colistin-resistant CDC isolate KP507, MHB2
  MIC: 16 µM (≈ 18.7 µg/mL)
K. pneumoniae; colistin-resistant CDC isolate KP1010, MHB2
  MIC: 16 µM (≈ 18.7 µg/mL)
K. pneumoniae; colistin-resistant CDC isolate KP1041, MHB2
  MIC: >16 µM
K. pneumoniae; colistin-resistant CDC isolate KP1045, MHB2
  MIC: >16 µM
K. pneumoniae; strain KP542, CDC clinical strain, confirmed by a second or third experimental trial
  MIC: >16 µM
K. pneumoniae; strain KP548, CDC clinical strain, confirmed by a second or third experimental trial
  MIC: 0.25 µM (≈ 0.292 µg/mL)
K. pneumoniae; strain KP550, CDC clinical strain, confirmed by a second or third experimental trial
  MIC: 0.25 µM (≈ 0.292 µg/mL)
K. pneumoniae; strain KP552, CDC clinical strain, confirmed by a second or third experimental trial
  MIC: 0.25 µM (≈ 0.292 µg/mL)
K. pneumoniae; strain KPA5 (colistin-resistant), UPMC, MHB2, 18 h, 37°C
  MIC: >16 µM
K. pneumoniae; strain KPB3, UPMC, MHB2, 18 h, 37°C
  MIC: 0.25 µM (≈ 0.292 µg/mL)
K. pneumoniae; strain KPC3, UPMC, MHB2, 18 h, 37°C
  MIC: 0.25 µM (≈ 0.292 µg/mL)
A. baumannii; strain AB273, CDC clinical strain, confirmed by a second or third experimental trial
  MIC: 0.5 µM (≈ 0.585 µg/mL)
A. baumannii; strain AB274, CDC clinical strain, confirmed by a second or third experimental trial
  MIC: 0.25 µM (≈ 0.292 µg/mL)
A. baumannii; strain AB275 (first line, r8), CDC clinical strain, confirmed by a second or third experimental trial
  MIC: 0.25 µM (≈ 0.292 µg/mL)
A. baumannii; strain AB275 (second line, r9), CDC clinical strain, confirmed by a second or third experimental trial
  MIC: 0.5 µM (≈ 0.585 µg/mL)
A. baumannii; strain AB-A2, UPMC clinical strain, MHB2, 18 h, 37°C, A570, confirmed by 2nd or 3rd trial
  MIC: 0.5 µM (≈ 0.585 µg/mL)
A. baumannii; strain AB-A3, UPMC, MHB2, 18 h, 37°C
  MIC: 0.25 µM (≈ 0.292 µg/mL)
A. baumannii; strain AB-F8, UPMC, MHB2, 18 h, 37°C
  MIC: 0.5 µM (≈ 0.585 µg/mL)
A. baumannii; strain AB-F9, UPMC, MHB2, 18 h, 37°C
  MIC: 0.25 µM (≈ 0.292 µg/mL)
CDC AR isolates; Acinetobacter baumannii AB273, CDC AR isolate
  Antibiotic susceptibility profile: S
CDC AR isolates; Acinetobacter baumannii AB274, CDC AR isolate
  Antibiotic susceptibility profile: S
CDC AR isolates; Acinetobacter baumannii AB275, CDC AR isolate
  Antibiotic susceptibility profile: S
CDC AR isolates; Acinetobacter baumannii AB276, CDC AR isolate
  Antibiotic susceptibility profile: S
CDC AR isolates; Enterobacter cloacae E62, CDC AR isolate
  Antibiotic susceptibility profile: S
CDC AR isolates; Enterobacter cloacae E546, CDC AR isolate
  Antibiotic susceptibility profile: R
CDC AR isolates; Klebsiella pneumoniae KP542, CDC AR isolate
  Antibiotic susceptibility profile: I
CDC AR isolates; Klebsiella pneumoniae KP548, CDC AR isolate
  Antibiotic susceptibility profile: R
CDC AR isolates; Klebsiella pneumoniae KP550, CDC AR isolate
  Antibiotic susceptibility profile: R
CDC AR isolates; Klebsiella pneumoniae KP552, CDC AR isolate
  Antibiotic susceptibility profile: R
CDC AR isolates; Pseudomonas aeruginosa PA229, CDC AR isolate
  Antibiotic susceptibility profile: S
CDC AR isolates; Pseudomonas aeruginosa PA230, CDC AR isolate
  Antibiotic susceptibility profile: S
CDC AR isolates; Pseudomonas aeruginosa PA231, CDC AR isolate
  Antibiotic susceptibility profile: S
CDC AR isolates; Pseudomonas aeruginosa PA232, CDC AR isolate
  Antibiotic susceptibility profile: S
CDC AR isolates; Pseudomonas aeruginosa PA239, CDC AR isolate
  Antibiotic susceptibility profile: R
E. coli; strain Eco541, CDC clinical strain, confirmed by a second or third experimental trial
  MIC: 1 µM (≈ 1.17 µg/mL)
E. coli; strain Eco543, CDC clinical strain, confirmed by a second or third experimental trial
  MIC: 8 µM (≈ 9.36 µg/mL)
E. coli; strain Eco546, CDC clinical strain, confirmed by a second or third experimental trial
  MIC: 0.25 µM (≈ 0.292 µg/mL)
E. coli; strain Eco549, CDC clinical strain, confirmed by a second or third experimental trial
  MIC: 1 µM (≈ 1.17 µg/mL)
E. coli; strain Eco25922, MHB2, 18 h, 37°C
  MIC: 0.5 µM (≈ 0.585 µg/mL)
E. coli; strain YDC107, UPMC, MHB2, 18 h, 37°C
  MIC: 0.5 µM (≈ 0.585 µg/mL)
E. coli; strain YDC337, UPMC, MHB2, 18 h, 37°C
  MIC: 0.25 µM (≈ 0.292 µg/mL)
E. coli; strain YDC748, UPMC, MHB2, 18 h, 37°C
  MIC: 0.25 µM (≈ 0.292 µg/mL)
Enterobacter spp; strain EA62 (aerogenes), CDC clinical strain, confirmed by a second or third experimental trial
  MIC: 2 µM (≈ 2.34 µg/mL)
Enterobacter spp; strain EA518 (aerogenes), UPMC, MHB2, 18 h, 37°C
  MIC: 0.25 µM (≈ 0.292 µg/mL)
Enterobacter spp; strain EA547 (aerogenes), CDC clinical strain, confirmed by a second or third experimental trial
  MIC: 0.25 µM (≈ 0.292 µg/mL)
Enterobacter spp; strain EA596 (aerogenes), UPMC, MHB2, 18 h, 37°C
  MIC: 0.25 µM (≈ 0.292 µg/mL)
Enterobacter spp; strain EC470 (cloacae), UPMC, MHB2, 18 h, 37°C
  MIC: 0.25 µM (≈ 0.292 µg/mL)
Enterobacter spp; strain EC544 (cloacae), CDC clinical strain, confirmed by a second or third experimental trial
  MIC: 4 µM (≈ 4.68 µg/mL)
Enterobacter spp; strain EC545 (cloacae), CDC clinical strain, confirmed by a second or third experimental trial
  MIC: 2 µM (≈ 2.34 µg/mL)
Enterobacter spp; strain EC560 (cloacae), UPMC, MHB2, 18 h, 37°C
  MIC: 0.25 µM (≈ 0.292 µg/mL)
S. aureus; strain SA461, CDC clinical strain, confirmed by a second or third experimental trial
  MIC: >16 µM
S. aureus; strain SA462, CDC clinical strain, confirmed by a second or third experimental trial
  MIC: >16 µM
S. aureus; strain SA463, CDC clinical strain, confirmed by a second or third experimental trial
  MIC: >16 µM
S. aureus; strain SA561, CDC clinical strain, confirmed by a second or third experimental trial
  MIC: >16 µM
S. aureus; strain SA12212, UPMC, MHB2, 18 h, 37°C
  MIC: >16 µM
S. aureus; strain SA18710, UPMC, MHB2, 18 h, 37°C
  MIC: >16 µM
S. aureus; strain SA49775, MHB2, 18 h, 37°C
  MIC: >16 µM
S. aureus; strain SA-US300, MHB2, 18 h, 37°C
  MIC: >16 µM
P. aeruginosa; strain PA01, MHB2, 18 h, 37°C
  MIC: 0.5 µM (≈ 0.585 µg/mL)
P. aeruginosa; strain PA14, MHB2, 18 h, 37°C
  MIC: 0.25 µM (≈ 0.292 µg/mL)
P. aeruginosa; strain PA97-5, UPMC, MHB2, 18 h, 37°C
  MIC: 0.25 µM (≈ 0.292 µg/mL)
P. aeruginosa; strain PA129-5, UPMC, MHB2, 18 h, 37°C
  MIC: 0.5 µM (≈ 0.585 µg/mL)
P. aeruginosa; strain PA216, CDC clinical strain, confirmed by a second or third experimental trial
  MIC: 0.5 µM (≈ 0.585 µg/mL)
P. aeruginosa; strain PA229, CDC clinical strain, confirmed by a second or third experimental trial
  MIC: >16 µM
P. aeruginosa; strain PA230, CDC clinical strain, confirmed by a second or third experimental trial
  MIC: 0.5 µM (≈ 0.585 µg/mL)
P. aeruginosa; strain PA231, CDC clinical strain, confirmed by a second or third experimental trial
  MIC: 1 µM (≈ 1.17 µg/mL)
[1]
  activity against the GPB strains: inactive
